Source: patent US20100267561A1, “HERBICIDAL PYRIDAZINONE DERIVATIVES” (priority 2007, published 2010)

Assays:
Assay type in all cases: in vivo
rice (Oryza sativa) = test: Test B flooded paddy test plant response
Summary of the method: (§1)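 Compounds were added directly to paddy water over 2-leaf-stage plants in pots flooded 3 cm above soil, water depth maintained. Visual injury scored against controls after 13 to 15 days in greenhouse, 0 (none) to 100 (complete control); dash indicates no result.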

[1] = system: barnyardgrass (Echinochloa crus-galli); test: Test B flooded paddy test plant response
Summary of the method: as §1

[2] = system: umbrella sedge (Cyperus difformis); test: Test B flooded paddy test plant response
Summary of the method: as §1

[3] = system: ducksalad (Heteranthera limosa); test: Test B flooded paddy test plant response
Summary of the method: as §1

[4] = system: canarygrass (Phalaris minor); test: Test B postemergence plant response; settings: for Canarygrass plant response rating: 8 g ai/ha, postemergence, 0-100 scale; for Plant response rating, Canarygrass: Postemergence
Summary of the method: (§2)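 Scoring: 0 means no effect and 100 complete control, judged by eye against controls after 13–15 days under greenhouse conditions following postemergence application at 2–18 cm plant height.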

[5] = system: chickweed (Stellaria media); test: Test B postemergence plant response; settings: for Chickweed plant response rating: 8 g ai/ha, postemergence, 0-100 scale; for Plant response rating, Chickweed: Postemergence
Summary of the method: as §2

[6] = system: winter barley (Hordeum vulgare); test: Test B postemergence plant response; settings: for Barley plant response rating: 8 g ai/ha, postemergence, 0-100 scale; for Plant response rating, Barley: Postemergence, scale 0 to 100, 0 no effect, 100 complete control
Summary of the method: as §2

[7] = system: windgrass (Apera spica-venti); test: Test B postemergence plant response; settings: for Windgrass plant response rating: postemergence, 0-100 scale; for Plant response rating, Windgrass: Postemergence
Summary of the method: as §2

[8] = system: velvetleaf (Abutilon theophrasti); test: Test A pre-/postemergence plant response
Summary of the method: (§3)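 Seeds were planted in blended loam soil and sand, then treated preemergence by directed soil spray. At that time, emerged plants (one- to two-leaf, 2–10 cm) received postemergence applications of the same surfactant-containing formulation. Injury was assessed visually on a 0–100 scale after approximately 10 days.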

[9] = system: morningglory (Ipomoea coccinea); test: Test A pre-/postemergence plant response
Summary of the method: as §3

[10] = system: pigweed (Amaranthus retroflexus); test: Test A pre-/postemergence plant response
Summary of the method: as §3

[11] = system: barnyardgrass (Echinochloa crus-galli); test: Test A pre-/postemergence plant response
Summary of the method: as §3

corn (Zea mays) = test: Test A pre-/postemergence plant response
Summary of the method: as §3

[12] = system: giant foxtail (Setaria faberi); test: Test A pre-/postemergence plant response
Summary of the method: as §3

[13] = system: large crabgrass (Digitaria sanguinalis); test: Test A pre-/postemergence plant response
Summary of the method: as §3

[14] = Flood (flooded paddy test), 62 g ai/ha, scale 0 to 100, 0 no effect, 100 complete control
[15] = Flood (flooded paddy test), 125 g ai/ha, scale 0 to 100, 0 no effect, 100 complete control
[16] = Flood (flooded paddy test), 250 g ai/ha, scale 0 to 100, 0 no effect, 100 complete control
[17] = Flood, 31 g ai/ha, scale 0 to 100
[18] = 62 g ai/ha, scale 0 to 100, 0 no effect, 100 complete control
[19] = Postemergence, 31 g ai/ha, 0 to 100 scale (0 no effect, 100 complete control)
[20] = Postemergence, 125 g ai/ha, 0 to 100 scale, 0 no effect, 100 complete control
[21] = Preemergence, 31 g ai/ha, 0 to 100 scale, 0 is no effect, 100 is complete control
[22] = Preemergence, 125 g ai/ha, 0 to 100 scale (0 no effect, 100 complete control)
[23] = 31 g ai/ha, scale 0 to 100, 0 no effect, 100 complete control

CCc1cc(-c2ccc(C(F)(F)F)cc2)nn1-c1c(O)cnn(CC)c1=O [Compound 67]
15: Plant response rating, Rice (rice (Oryza sativa); [16])
100: Windgrass plant response rating ([7]; 16 g ai/ha) | Plant response rating, Windgrass ([7]; 31 g ai/ha, scale 0 to 100) | Plant response rating, Windgrass [7, 18] | Plant response rating, Barnyardgrass [11, 19] | Plant response rating, Barnyardgrass [11, 20] | Plant response rating, Barnyardgrass [11, 22] | Plant response rating, Corn (corn (Zea mays); [20]) | Plant response rating, Foxtail, Giant [12, 19] | Plant response rating, Foxtail, Giant [12, 20] | Plant response rating, Foxtail, Giant [12, 22] | Plant response rating, Crabgrass, Large [13, 20]
75: Plant response rating, Ducksalad [3, 16]
50: Plant response rating, Barnyardgrass [1, 16] | Canarygrass plant response rating [4]
20: Plant response rating, Corn (corn (Zea mays); [21]) | Plant response rating, Crabgrass, Large [13, 21]
0: Plant response rating, Rice (rice (Oryza sativa); [14]) | Plant response rating, Rice (rice (Oryza sativa); [15]) | Plant response rating, Rice (rice (Oryza sativa); [17]) | Plant response rating, Barnyardgrass [1, 17] | Plant response rating, Sedge, Umbrella [2, 14] | Plant response rating, Sedge, Umbrella [2, 15] | Plant response rating, Sedge, Umbrella [2, 16] | Plant response rating, Sedge, Umbrella [2, 17] | Plant response rating, Ducksalad [3, 14] | Plant response rating, Ducksalad [3, 15] | Plant response rating, Ducksalad [3, 17] | Chickweed plant response rating [5] | Plant response rating, Chickweed ([5]; 16 g ai/ha, scale 0 to 100) | Plant response rating, Chickweed ([5]; 31 g ai/ha, scale 0 to 100) | Plant response rating, Chickweed [5, 18] | Plant response rating, Velvetleaf [8, 19] | Plant response rating, Velvetleaf [8, 20] | Plant response rating, Velvetleaf [8, 21] | Plant response rating, Velvetleaf [8, 22] | Plant response rating, Morningglory [9, 19] | Plant response rating, Morningglory [9, 20] | Plant response rating, Morningglory [9, 21] | Plant response rating, Morningglory [9, 22] | Plant response rating, Pigweed [10, 19] | Plant response rating, Pigweed [10, 20] | Plant response rating, Pigweed [10, 21] | Plant response rating, Pigweed [10, 22] | Plant response rating, Barnyardgrass [11, 21]
95: Plant response rating, Canarygrass ([4]; 31 g ai/ha, scale 0 to 100) | Plant response rating, Barley ([6]; 31 g ai/ha) | Windgrass plant response rating ([7]; 8 g ai/ha)
40: Plant response rating, Foxtail, Giant [12, 21]
85: Plant response rating, Barley ([6]; 16 g ai/ha)
90: Plant response rating, Corn (corn (Zea mays); [19]) | Plant response rating, Crabgrass, Large [13, 22]
35: Plant response rating, Barnyardgrass [1, 15] | Barley plant response rating [6]
80: Plant response rating, Canarygrass ([4]; 16 g ai/ha, scale 0 to 100) | Plant response rating, Corn (corn (Zea mays); [22]) | Plant response rating, Crabgrass, Large [13, 19]
25: Plant response rating, Barnyardgrass [1, 14]

Cc1cc(-c2ccc(Cl)cc2)nn1-c1c(OS(C)(=O)=O)cnn(C)c1=O [Compound 36]
70: Plant response rating, Crabgrass, Large [13, 21]
50: Plant response rating, Corn (corn (Zea mays); [19]) | Plant response rating, Corn (corn (Zea mays); [21])
65: Plant response rating, Windgrass [7, 18]
100: Plant response rating, Barnyardgrass [11, 20] | Plant response rating, Barnyardgrass [11, 22] | Plant response rating, Foxtail, Giant [12, 21] | Plant response rating, Foxtail, Giant [12, 22] | Plant response rating, Crabgrass, Large [13, 22]
15: Plant response rating, Barley ([6]; 31 g ai/ha) | Plant response rating, Barley ([6]; 62 g ai/ha)
10: Plant response rating, Canarygrass [4, 23] | Plant response rating, Canarygrass [4, 18] | Plant response rating, Pigweed [10, 20]
0: Plant response rating, Rice (rice (Oryza sativa); [14]) | Plant response rating, Rice (rice (Oryza sativa); [15]) | Plant response rating, Rice (rice (Oryza sativa); [16]) | Plant response rating, Rice (rice (Oryza sativa); [17]) | Plant response rating, Barnyardgrass [1, 14] | Plant response rating, Barnyardgrass [1, 15] | Plant response rating, Barnyardgrass [1, 16] | Plant response rating, Barnyardgrass [1, 17] | Plant response rating, Sedge, Umbrella [2, 14] | Plant response rating, Sedge, Umbrella [2, 15] | Plant response rating, Sedge, Umbrella [2, 16] | Plant response rating, Sedge, Umbrella [2, 17] | Plant response rating, Ducksalad [3, 14] | Plant response rating, Ducksalad [3, 15] | Plant response rating, Ducksalad [3, 16] | Plant response rating, Ducksalad [3, 17] | Canarygrass plant response rating [4] | Plant response rating, Canarygrass ([4]; 16 g ai/ha, scale 0 to 100) | Chickweed plant response rating [5] | Plant response rating, Chickweed ([5]; 16 g ai/ha, scale 0 to 100) | Plant response rating, Chickweed [5, 23] | Plant response rating, Chickweed [5, 18] | Barley plant response rating [6] | Plant response rating, Barley ([6]; 16 g ai/ha) | Windgrass plant response rating ([7]; 8 g ai/ha) | Plant response rating, Windgrass ([7]; 16 g ai/ha, scale 0 to 100) | Plant response rating, Velvetleaf [8, 19] | Plant response rating, Velvetleaf [8, 20] | Plant response rating, Velvetleaf [8, 21] | Plant response rating, Velvetleaf [8, 22] | Plant response rating, Morningglory [9, 20] | Plant response rating, Morningglory [9, 21] | Plant response rating, Morningglory [9, 22] | Plant response rating, Pigweed [10, 19] | Plant response rating, Pigweed [10, 21]
90: Plant response rating, Barnyardgrass [11, 21] | Plant response rating, Foxtail, Giant [12, 19] | Plant response rating, Foxtail, Giant [12, 20] | Plant response rating, Crabgrass, Large [13, 20]
80: Plant response rating, Barnyardgrass [11, 19] | Plant response rating, Corn (corn (Zea mays); [20]) | Plant response rating, Corn (corn (Zea mays); [22]) | Plant response rating, Crabgrass, Large [13, 19]
30: Plant response rating, Pigweed [10, 22]

Cc1cc(-c2ccc(Cl)cc2)nn1-c1c(OC(=O)OCC(C)C)cnn(C)c1=O [Compound 57]
50: Windgrass plant response rating ([7]; 8 g ai/ha) | Plant response rating, Windgrass ([7]; 16 g ai/ha, scale 0 to 100) | Plant response rating, Corn (corn (Zea mays); [22]) | Plant response rating, Crabgrass, Large [13, 21]
100: Plant response rating, Barnyardgrass [11, 22] | Plant response rating, Foxtail, Giant [12, 22] | Plant response rating, Crabgrass, Large [13, 22]
15: Plant response rating, Rice (rice (Oryza sativa); [16])
10: Plant response rating, Rice (rice (Oryza sativa); [15])
40: Plant response rating, Barley ([6]; 62 g ai/ha)
90: Plant response rating, Foxtail, Giant [12, 20] | Plant response rating, Foxtail, Giant [12, 21]
55: Plant response rating, Windgrass ([7]; 31 g ai/ha, scale 0 to 100)
70: Plant response rating, Ducksalad [3, 16] | Plant response rating, Windgrass [7, 18]
75: Plant response rating, Sedge, Umbrella [2, 15]
60: Plant response rating, Canarygrass [4, 18] | Plant response rating, Barnyardgrass [11, 21] | Plant response rating, Corn (corn (Zea mays); [20])
65: Plant response rating, Sedge, Umbrella [2, 14]
0: Plant response rating, Rice (rice (Oryza sativa); [14]) | Plant response rating, Rice (rice (Oryza sativa); [17]) | Plant response rating, Barnyardgrass [1, 14] | Plant response rating, Barnyardgrass [1, 15] | Plant response rating, Barnyardgrass [1, 16] | Plant response rating, Barnyardgrass [1, 17] | Plant response rating, Ducksalad [3, 14] | Plant response rating, Ducksalad [3, 15] | Canarygrass plant response rating [4] | Plant response rating, Canarygrass ([4]; 16 g ai/ha, scale 0 to 100) | Plant response rating, Canarygrass ([4]; 31 g ai/ha, scale 0 to 100) | Chickweed plant response rating [5] | Plant response rating, Chickweed ([5]; 16 g ai/ha, scale 0 to 100) | Plant response rating, Chickweed ([5]; 31 g ai/ha, scale 0 to 100) | Plant response rating, Chickweed [5, 18] | Barley plant response rating [6] | Plant response rating, Barley ([6]; 16 g ai/ha) | Plant response rating, Barley ([6]; 31 g ai/ha) | Plant response rating, Velvetleaf [8, 19] | Plant response rating, Velvetleaf [8, 20] | Plant response rating, Velvetleaf [8, 21] | Plant response rating, Velvetleaf [8, 22] | Plant response rating, Morningglory [9, 19] | Plant response rating, Morningglory [9, 20] | Plant response rating, Morningglory [9, 21] | Plant response rating, Morningglory [9, 22] | Plant response rating, Pigweed [10, 19] | Plant response rating, Pigweed [10, 20] | Plant response rating, Pigweed [10, 21] | Plant response rating, Pigweed [10, 22] | Plant response rating, Barnyardgrass [11, 19] | Plant response rating, Corn (corn (Zea mays); [19]) | Plant response rating, Corn (corn (Zea mays); [21]) | Plant response rating, Foxtail, Giant [12, 19] | Plant response rating, Crabgrass, Large [13, 19]
45: Plant response rating, Sedge, Umbrella [2, 17]
80: Plant response rating, Sedge, Umbrella [2, 16] | Plant response rating, Barnyardgrass [11, 20] | Plant response rating, Crabgrass, Large [13, 20]
